“Also recorded” adds a separate entry of the source.
Tests used:
Dmpk^480/480 mice = assay: RT-PCR splicing rescue in Dmpk480/480 DM1 mouse model (choroid plexus/CNS); type: in vivo; conditions: for RT-PCR splicing rescue of Lnf2 exon22: choroid plexus of Dmpk^480/480 mice (N=2), 10 mg/kg, FIG. 8B
Description: (§1) New MPCs, including HM33, are being systematically designed to study bioavailability. […] Systematic modification of current MPCs (See e.g., FIGS. 5A and 5B) is used to assess the contribution of each change to bioavailability with the goal of improving BBB and other organ penetration.
(§2) Short-term Studies: To select excellent candidates for long-term studies, cohorts (N=6) of one-month old age- and gender-matched animals from both muscle (homozygous HSALR/LR or heterozygous HSAXLR) and brain (Dmpk480/480) mouse models are treated. Both transgenic (N=6) and matching wild-type (N=6) mice are treated every two days at 3 different concentrations of lead MPCs (2, 5 and 10 mg/kg) or PBS via IP injection for a period of 1 week. The 48-hour injection schedule and starting concentrations are based upon previous treatment regimens and preliminary pharmacokinetic analysis. However, the schedule or treatments is subject to change depending upon the candidate compound's history and performance in e.g., Steps 1 and 2 of FIG. 1. After 1 week of treatment, mice are tested for health (body weight, body condition score) then sacrificed, and muscle tissue (tibialis anterior, vastus lateralis, liver, kidney & brain) harvested and tested for in vivo changes in molecular (foci, splicing and MBNL1 colocalization) and histopathological features (central nuclei, HSA-based models only). To assess molecular features, frozen muscle samples are tested for: mis-splicing changes (RT-PCR and RNAseq); transgene and endogenous DMPK expression (qRT-PCR); off-target effects (RNAseq); RNA foci (FISH); MBNL1 colocalization (FISH/IF); CLCN1 staining (IF); and central nuclei (H&E). Frozen muscle and brain samples from each mouse model are analyzed by UPLC-MS/MS to determine preliminary bioavailability, which is correlated with molecular activity (muscle only for HSA-based and brain only for DMPK480/480) to assess therapeutic potential.

DM1 myoblasts = assay: RT-PCR analysis of mis-splicing events in DM1 myoblasts; type: cell-based, human; conditions: nanomolar concentrations, FIG. 2D
Description: (§3) FIG. 2A presents the chemical structures of furamidine, HM19A and HM19B. […] (ANOVA two-tailed test, *p<0.05 and **p<0.01).

DM1 and DM2 cell lines = assay: Splicing rescue and toxicity in DM1 and DM2 patient-derived cell lines; type: cell-based, human; conditions: DM fibroblasts and myotubes; nanomolar range where stated
Description: Referring to FIG. 1, Step 2, a process flow includes characterizing the best-in-class MPCs for in cellulo activity and therapeutic potential. Rationale and preliminary data: Because of the multisystemic nature of pathogenesis in myotonic dystrophy, it is desirable to evaluate the therapeutic potential of excellent MPCs in multiple DM cellular models as well as in control models in order to best prioritize compounds for in vivo testing. The cellular activity of MPC lead panel is systematically evaluated starting with HM19A & HM19B in 2 independent DM1 and DM2 patient-derived fibroblast lines and 2 independent DM1 myoblast/myotube differentiation models along with age and gender-matched control cell lines. Potential blood brain barrier penetrance is evaluated using the established MDR1-MDCK monolayer assay. This aim will facilitate the informed selection of the top performing compounds in cellular studies for testing in animal models of DM (See e.g., FIG. 1, step 3).
(§4) DM splicing panel analysis: MPCs are evaluated starting with HM19A &19B in control and DM cells using a 5-point dose-response treatment. Data from the characterization of multiple DM1 & DM2 fibroblast supports this splicing panel and the utility of fibroblasts as a screening tool (See FIGS. 7A-E).

DM2 fibroblasts = assay: RT-PCR analysis of INSR exon 11 mis-splicing in DM2 fibroblasts; type: cell-based, human; conditions: FIG. 2B
Description: as §3, §4

DM1 fibroblasts = assay: RT-PCR analysis of INSR exon 11 mis-splicing in DM1 fibroblasts; type: cell-based, human; conditions: FIG. 2B
Description: as §3, §4

CUG repeat RNA = assay: Circular dichroism (CD) spectroscopy with CUG repeat RNA; type: binding
HSA^LR/LR mice = assay: RT-PCR splicing rescue in HSALR/LR DM1 mouse model (muscle); type: in vivo; conditions: for rescue of mis-splicing (DM1 splicing) in HSALR mice: HSALR mouse model; for RT-PCR splicing rescue of Atp2a1 exon 22: TA muscle of HSA^LR/LR mice (N=2), 7 days, FIG. 8A
Description: as §1
as §2, with “The” for “Short-term Studies: To select excellent candidates for long-term studies, cohorts (N=6) of one-month old age- and gender-matched animals from both muscle (homozygous HSALR/LR or heterozygous HSAXLR) and brain (Dmpk480/480) mouse models are treated. Both transgenic (N=6) and matching wild-type (N=6) mice are treated every two days at 3 different concentrations of lead MPCs (2, 5 and 10 mg/kg) or PBS via IP injection for a period of 1 week. The”

DM1 fibroblast = assay: MTT cell viability in DM1 fibroblast; type: cell-based, human; conditions: for MTT cell viability: DM1 fibroblast, low micromolar concentrations, FIG. 2C
Description: as §3
Effects on cellular health: To monitor the overall health of cells, treated vs. untreated control and DM patient fibroblast and myoblast/myotube lines are tested across a dose range where one observes a reduction in toxic CUG/CCUG RNA levels and rescue of mis-splicing. Cell health is monitored using the lactate dehydrogenase (LDH) and methylthiazol tetrazolium (MTT) assays, to measure membrane integrity (cell death) and metabolic activity (cell viability), along with monitoring rates of cell growth. Mutagenicity is assessed using the Ames test. Alterations in cell death, cell viability and rates of cell growth and mutagenicity is combined with data from control cells to determine the overall effect on cell health due to MPC treatment. As shown in FIGS. 2A-2E, HM19B rescues splicing at more than 50-fold lower concentrations than at concentrations where cell death is starting to be observed.

patient-derived myotubes = assay: DM1 splicing rescue in patient-derived myotubes; type: cell-based, human

Structure (SMILES) | RT-PCR splicing rescue of Lnf2 exon22 (Dmpk^480/480 mice) | rescue of MBNL1 exon 5 mis-splicing (DM1 myoblasts) | rescue of MBNL2 exon 5 mis-splicing (DM1 myoblasts) | splicing rescue in patient-derived cell lines (DM1 and DM2 cell lines) | rescue of INSR exon 11 mis-splicing (DM2 fibroblasts) | rescue of INSR exon 11 mis-splicing (DM1 fibroblasts) | interaction with CUG repeat RNA by CD spectroscopy (CUG repeat RNA) | rescue in the CNS compared to DB829 (Dmpk^480/480 mice; Dmpk^480/480 mice, FIG. 8C) | rescue in the Dmpk480/480 mice (Dmpk^480/480 mice; early preliminary data) | rescue of mis-splicing (DM1 splicing) in HSALR mice (HSA^LR/LR mice) | RT-PCR splicing rescue of Atp2a1 exon 22 (HSA^LR/LR mice) | MTT cell viability (DM1 fibroblast) | concentration margin between splicing rescue and concentrations where cell death is starting to be observed (DM1 fibroblast; FIGS. 2A-2E) | rescue of DM1 splicing (patient-derived myotubes)
N=C(N)c1ccc(-c2ccc(-c3ccc(C(=N)N)cn3)o2)nc1 [DB829, reference compound] | splicing rescue |  |  |  |  |  |  |  |  |  |  |  |  | 
CN1CCN(c2ccc3nc(-c4ccc(-c5ccc6c(c5)oc5cc(-c7ccc(-c8nc9ccc(N%10CCN(C)CC%10)cc9[nH]8)cc7)ccc56)cc4)[nH]c3c2)CC1 [HM19B] | splicing rescue | promising rescue | promising rescue | splicing rescue at the nanomolar concentration; also recorded: significantly rescuing mis-splicing | strong rescue | strong rescue | surface interaction between ligand and substrate | reduced rescue | capable of rescue | significantly rescuing mis-splicing | splicing rescue | no effect on viability | more than 50 fold | 
COc1cc2c(c(OC)c1OC)-c1ccc(OC)c(=O)cc1[C@@H](NC(C)=O)CC2 [colchicine] |  |  |  |  |  |  |  |  |  |  |  |  |  | rescue DM1 splicing
c1ccc2[nH]c(-c3ccc(-c4ccc(-c5ccc(-c6nc7ccccc7[nH]6)cc5)o4)cc3)nc2c1 [HM19A] |  |  |  | significantly rescuing mis-splicing | strong rescue | strong rescue |  |  |  | significantly rescuing mis-splicing | splicing rescue | no effect on viability |  | 
